Active and inactive are the calls of the source. The calls are words filed in the database; no cut-off is given here.

For orientation: IC50 means the concentration that inhibits the measured activity by half.

Assay [1] addresses T1, Vitamin D3 receptor (Homo sapiens) (UniProt P11473).
T1 sequence (whole entry): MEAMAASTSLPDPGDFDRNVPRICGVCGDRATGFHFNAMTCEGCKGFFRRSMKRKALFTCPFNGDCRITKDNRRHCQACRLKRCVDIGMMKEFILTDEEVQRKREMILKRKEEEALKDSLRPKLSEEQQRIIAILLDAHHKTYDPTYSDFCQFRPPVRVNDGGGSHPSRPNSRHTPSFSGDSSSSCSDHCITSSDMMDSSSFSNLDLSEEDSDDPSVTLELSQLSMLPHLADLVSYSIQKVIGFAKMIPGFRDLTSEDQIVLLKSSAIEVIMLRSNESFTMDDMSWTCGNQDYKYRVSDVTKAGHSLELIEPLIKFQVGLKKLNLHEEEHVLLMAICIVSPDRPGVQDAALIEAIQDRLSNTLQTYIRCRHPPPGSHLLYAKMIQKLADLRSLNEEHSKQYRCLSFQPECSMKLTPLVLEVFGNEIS
The assay is described as follows: Agonist activity at human VDR transfected in African green monkey COS7 cells assessed as induction of transcriptional activity at 10^-10 to 10^-5 M after 16 hrs by dual luciferase reporter gene assay. It is filed as cell-based. Conditions: COS-7. On the technique in general: A reporter such as luciferase makes a cellular process visible.

Assay [2] deals with T2, Vitamin D3 receptor (Homo sapiens, UniProt P11473).
T2 sequence (P11473 whole entry): T1 sequence (whole entry)
Kind of assay: Displacement of [3H]-1alpha,25-dihydroxyvitamin D3 from recombinant human VDR LBD expressed in Escherichia coli BL21 (DE3) pLysS after 16 hrs. (In a radioligand displacement assay an active substance lowers the binding of a labelled ligand.)

On to `C=C1[C@H](O)CC(=C/C=C2\CCC[C@]3(C)[C@@H]([C@H](C)[C@H](CCO)CCCCCC)CC[C@@H]23)C[C@H]1O`, for which, in assay [1], the outcome was Active. The IC50 in assay [2] came to 0.21 nM.

The record behind these values is ChEMBL document CHEMBL3627651, “Fine tuning of agonistic/antagonistic activity for vitamin D receptor by 22-alkyl chain length of ligands: 22S-Hexyl compound unexpectedly restored agonistic activity” (Bioorg Med Chem, 2015).
